Read-outs that look alike come from different tables or passages of the source.
Tests used:
GLUT1 = molecular target: T1, GLUT1 (Homo sapiens, UniProt P11166); test: GLUT1 affinity cis-inhibition assay against [14C]-D-glucose in CAL 27 cells; assay type: cell-based; settings: competition with 1.8 μM [14C]-D-glucose, 5 min, room temperature, 0.1–1800 μM
T1 construct: host or cells: CAL 27 human squamous carcinoma cells
T1 sequence (P11166 1-492): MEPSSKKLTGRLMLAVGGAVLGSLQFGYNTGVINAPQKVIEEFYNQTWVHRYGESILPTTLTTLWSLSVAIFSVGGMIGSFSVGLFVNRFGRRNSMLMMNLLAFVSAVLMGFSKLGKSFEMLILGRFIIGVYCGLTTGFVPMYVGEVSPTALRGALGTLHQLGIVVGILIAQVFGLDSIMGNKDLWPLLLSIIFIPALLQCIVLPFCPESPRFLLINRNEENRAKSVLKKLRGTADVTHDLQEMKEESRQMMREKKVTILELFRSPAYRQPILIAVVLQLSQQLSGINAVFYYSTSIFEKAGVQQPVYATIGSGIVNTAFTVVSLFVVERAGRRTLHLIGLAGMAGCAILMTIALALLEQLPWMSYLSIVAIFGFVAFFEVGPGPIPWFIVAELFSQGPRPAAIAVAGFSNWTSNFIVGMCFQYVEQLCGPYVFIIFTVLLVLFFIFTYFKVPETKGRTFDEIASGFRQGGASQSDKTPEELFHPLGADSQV
Text: From the drug development perspective, it is central to understand the molecular interactions between the ligand and the transporter. For example, in a BNCT context, the selectivity and success of the treatments are directly related to the preferential uptake of boron-10 enriched delivery agents by cancer cells. In our case, the GLUT1 transporter, which is overexpressed on various cancers, is responsible for the uptake process. The clinical validity and therapeutic utility of the approach stem from the “Warburg effect”.[7],[8] Cancer cells have an impaired D-glucose metabolism while simultaneously displaying a high proliferation rate and energy demand. Together, these factors contribute to an increased D-glucose uptake in cancer cells compared to healthy cells and offer a basis for pursuing a GLUT1-targeting strategy in BNCT. Based on the available tumor imaging data obtained through the use of FDG,[38] head and neck cancers represent a promising target for our approach. Therefore, we employed the human squamous carcinoma cell line CAL 27 as a suitable model for the in vitro assessment of GLUT1-targeting delivery agents. In addition to being a relevant head and neck cancer cell line of human origin, the GLUT1-transporter has been indicated to play a key role in the aberrant growth of CAL 27 cells.[39],[40] In our previous work, we validated the GLUT1-function, quantified the GLUT1-expression, and developed a cis-inhibition assay for determining the relative affinities of GLUT1-targeting delivery agents to GLUT1 in the CAL 27 cell line.[13],[14] To allow comparison of the results of the present study to our earlier ones, we used the same protocols herein. The fully deprotected glucoconjugates 1–4 were subjected to the cis-inhibition assay, i.e., they were forced to compete for the transporter against radiolabeled [^14C]-D-glucose in order to assess their targeting capabilities from a functional point of view. A high GLUT1 affinity, i.e., a low IC50 value, is characteristic of delivery agents that are able to target the transporter in the presence of the natural substrate D-glucose in a biological milieu. […] Large differences in the IC50 values were thus noted. […] These two delivery agents display acceptable GLUT1-targeting capabilities. […] While the trend is clear, the results are surprising. The question that arises is as follows: which underlying factors contribute to these notable deviations uncovered through the experimental cis-inhibition assay?
The GLUT1 affinity assay was performed according to our previously developed protocol.[13],[14] […] Liquid scintillation counter (MicroBeta^2 counter, PerkinElmer, Waltham, MA, USA) was used to assess the radioactivity, and the IC50 values were determined by nonlinear regression analysis.

CAL 27 cell line = test: Cellular uptake (boron delivery capacity) by ICP-MS boron quantification; assay type: cell-based, human; settings: for behaviour at GLUT1 inferred from affinity and uptake profiles: CAL 27; for Vmax (boron uptake, Michaelis–Menten) / Km: 10–400 μM; for Km: read-out: Km (boron uptake, Michaelis–Menten)
Method: The uptake studies were performed according to our recently reported protocol.[13],[14] […] This, however, is not a concern, as the cell-killing effect caused by the thermal neutron beam in actual BNCT treatments has a destructive radius reminiscent to the diameter of a single cell (5–9 μm in biological tissue).[46] In the uptake studies, the concentration range 10–400 μM was screened. The incubation times 5, 30, and 120 min were chosen due the optimal performance of [^14C]-D-glucose under these conditions. Since inductively-coupled plasma mass spectrometry (ICP-MS) is somewhat insensitive when it comes to quantification of the boron content, thoroughly washed cells from four wells were combined and digested before being subjected to the analysis. […] However, we noticed that the Km values were consistently higher with the S-linked carboranyl species compared to the O-linked carboranylmethyl species.[14] The higher Km value may imply that there are additional transport mechanisms involved in the uptake of the S-series delivery agents. More work is needed to ascertain these factors. Regardless, the different Km values may likewise indicate that a greater concentration, which may no longer be clinically relevant, would be required for the S-series species to reach Vmax.
The cells were first pre-incubated. The substrates were then added in different concentration (10–400 μM in 250 μL of HBSS) and incubation was continued for 5, 30, and 120 min at room temperature. Ice-cold buffer was used to quench the reaction at the set time points. Washing and lysis was carried out as mentioned above. A combined sample was prepared in an Eppendorf tube by addition of cell lysate from four wells. The combined sample was centrifuged at +4 °C. From the supernatant of every sample, 800 μL was taken and digested in 1.0 mL of HNO3 (TraceMetal grade, Fisher Chemical) for 24 h. Milli-Q water (USF Elga Purelab Ultra) was added until the sample volume was 10 mL, and the boron contents were assessed in triplicates by ICP-MS. More details on the ICP method can be found in our earlier work.[13],[14] PerkinElmer Syngistix Data Analysis Software was used for data analysis and GraphPad Prism v.5.03 software (GraphPad Software, San Diego, Ca, USA) for statistical analysis.

Compound | IC50 (GLUT1) | behaviour at GLUT1 inferred from affinity and uptake profiles (CAL 27 cell line) | Vmax (boron uptake, Michaelis–Menten) (CAL 27 cell line; CAL 27, 5 min incubation) | Km (CAL 27 cell line; CAL 27, 5 min incubation) | Vmax (boron uptake, Michaelis–Menten) (CAL 27 cell line; CAL 27, 30 min incubation) | Km (CAL 27 cell line; CAL 27, 30 min incubation) | boron delivery capacity compared to the other delivery agents screened (BPA, BSH) (CAL 27 cell line; CAL 27, 10–400 μM, 5, 30 and 120 min) | Vmax (boron uptake, Michaelis–Menten) (CAL 27 cell line; CAL 27, 120 min incubation) | Km (CAL 27 cell line; CAL 27, 120 min incubation)
6-Deoxy-6-thio-(1,2-dicarba-closo-dodecaboran-1-yl)-D-glucopyranose [Compound 1] | 127 µM | seems to act as a GLUT1-antagonist | 1.34 μg B/mg protein | 1830 µM | 0.83 μg B/mg protein | 556 µM |  |  | 
6-Deoxy-6-thio-(1,7-dicarba-closo-dodecaboran-1-yl)-D-glucopyranose [Compound 2] | 121 µM | enters the cells through the transporter at an acceptable rate | 6.60 μg B/mg protein | 1810 µM | 1.80 μg B/mg protein | 237 µM | fivefold higher delivery capacity | 2.19 μg B/mg protein | 208 µM
OC[C@H]1OC(O)[C@H](O)[C@@H](O)[C@@H]1O (stereo partly drawn) [D-glucose, reference compound] | > 1000 µM |  |  |  |  |  |  |  | 
6-Deoxy-6-thio-(1,2-dicarba-closo-dodecaboran-9-yl)-D-glucopyranose [Compound 3] | 982 µM |  | 0.03 μg B/mg protein | 110 µM |  |  |  |  | 

— publication PMC9434784, “Synthesis and In Vitro Evaluation of a Set of 6-Deoxy-6-thio-carboranyl D-Glucoconjugates Shed Light on the Substrate Specificity of the GLUT1 Transporter” (ACS Omega, 2022)
